This passage reports IC50 results from patent US20240158412A1 (Faxian Therapeutics, LLC, priority 2021, published 2024).

Molecules are shown by their SMILES. Some results are limits rather than exact numbers.
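Further: fluorescence intensity readout of USP7 enzymatic activity, reaction incubated 90 min at room temperature.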

Chain of USP7 (Q93009 whole entry): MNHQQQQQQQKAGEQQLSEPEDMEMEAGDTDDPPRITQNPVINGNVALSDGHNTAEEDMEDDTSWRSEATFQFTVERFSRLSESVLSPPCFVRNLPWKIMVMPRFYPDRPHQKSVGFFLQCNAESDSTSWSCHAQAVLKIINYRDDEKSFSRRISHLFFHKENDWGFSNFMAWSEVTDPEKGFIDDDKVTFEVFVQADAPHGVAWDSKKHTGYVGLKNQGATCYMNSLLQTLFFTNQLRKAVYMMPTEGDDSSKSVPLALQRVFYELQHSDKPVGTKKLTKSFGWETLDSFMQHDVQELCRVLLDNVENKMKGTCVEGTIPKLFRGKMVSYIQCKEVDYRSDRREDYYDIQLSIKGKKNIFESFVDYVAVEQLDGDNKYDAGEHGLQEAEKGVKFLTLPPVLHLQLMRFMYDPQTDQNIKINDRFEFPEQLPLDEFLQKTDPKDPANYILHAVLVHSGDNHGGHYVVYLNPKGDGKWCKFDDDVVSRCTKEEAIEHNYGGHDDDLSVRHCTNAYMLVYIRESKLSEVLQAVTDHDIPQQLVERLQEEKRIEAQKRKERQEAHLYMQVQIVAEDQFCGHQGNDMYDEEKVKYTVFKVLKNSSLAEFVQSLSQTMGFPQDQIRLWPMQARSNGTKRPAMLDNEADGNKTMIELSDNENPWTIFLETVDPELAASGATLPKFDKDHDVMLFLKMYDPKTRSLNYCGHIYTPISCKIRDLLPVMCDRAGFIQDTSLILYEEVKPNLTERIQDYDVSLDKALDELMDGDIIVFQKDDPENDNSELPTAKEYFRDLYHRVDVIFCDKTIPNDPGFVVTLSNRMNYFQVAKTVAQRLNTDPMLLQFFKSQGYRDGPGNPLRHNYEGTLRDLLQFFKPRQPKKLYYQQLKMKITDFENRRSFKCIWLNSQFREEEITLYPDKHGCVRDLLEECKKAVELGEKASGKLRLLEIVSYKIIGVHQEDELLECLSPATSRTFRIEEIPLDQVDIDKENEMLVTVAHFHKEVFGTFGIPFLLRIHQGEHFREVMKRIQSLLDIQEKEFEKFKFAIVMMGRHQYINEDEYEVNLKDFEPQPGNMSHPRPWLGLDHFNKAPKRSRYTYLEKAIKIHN

This assay addresses USP7 (Homo sapiens, UniProt Q93009). Put plainly: biochemical.
A word on the IC50: it is the point on the concentration scale where inhibition reaches its midpoint. A higher IC50 goes with lower potency. As to `O=c1c2ccccc2ncn1Cc1cc2nccc(-c3cc(Cl)cc4c3N(C3CNC3)CCC4)c2s1` [Example 19, 3-[[7-[1-(azetidin-3-yl)-6-chloro-3,4-dihydro-2H-quinolin-8-yl]thieno[3,2-b]pyridin-2-yl]methyl]quinazolin-4-one], the IC50 was greater than 1000 nM.

Compound `O=c1c2ccccc2cnn1Cc1cc2nccc(-c3cc(Cl)cc4c3N(C3CNC3)CCC4)c2s1` [Example 21, 2-[[7-[1-(azetidin-3-yl)-6-chloro-3,4-dihydro-2H-quinolin-8-yl]thieno[3,2-b]pyridin-2-yl]methyl]phthalazin-1-one] displayed an IC50 of 101 to 1000 nM.

Turning to `Cc1cnn(Cc2cc3nccc(-c4cc(Cl)cc5c4N(C4CNC4)CCC5)c3s2)c(=O)c1` [Example 22, 2-[[7-[1-(azetidin-3-yl)-6-chloro-3,4-dihydro-2H-quinolin-8-yl]thieno[3,2-b]pyridin-2-yl]methyl]-5-methyl-pyridazin-3-one], the IC50 is 10 to 100 nM.

Take `O=c1ccn(CC(F)F)c(=O)n1Cc1cc2nccc(-c3cc(Cl)cc4c3N(C3CNC3)CCC4)c2s1` [Example 23, 3-[[7-[1-(azetidin-3-yl)-6-chloro-3,4-dihydro-2H-quinolin-8-yl]thieno[3,2-b]pyridin-2-yl]methyl]-1-(2,2-difluoroethyl)pyrimidine-2,4-dione]: the IC50 is less than 10 nM.

On to `O=c1ccn(CC(F)(F)F)c(=O)n1Cc1cc2nccc(-c3cc(Cl)cc4c3N(C3CNC3)CCC4)c2s1` [Example 24, 3-[[7-[1-(azetidin-3-yl)-6-chloro-3,4-dihydro-2H-quinolin-8-yl]thieno[3,2-b]pyridin-2-yl]methyl]-1-(2,2,2-trifluoroethyl)pyrimidine-2,4-dione], for which the IC50 is less than 10 nM.

On to `O=C1COC(=O)N1Cc1cc2nccc(-c3cc(Cl)cc4c3N(C3CNC3)CCC4)c2s1` [Example 27, 3-[[7-[1-(azetidin-3-yl)-6-chloro-3,4-dihydro-2H-quinolin-8-yl]thieno[3,2-b]pyridin-2-yl]methyl]oxazolidine-2,4-dione], for which the IC50 is 10 to 100 nM.

Consider `O=C1CNCC(=O)N1Cc1cc2nccc(-c3cc(Cl)cc4c3N(C3CNC3)CCC4)c2s1` [Example 28, 1-[[7-[1-(azetidin-3-yl)-6-chloro-3,4-dihydro-2H-quinolin-8-yl]thieno[3,2-b]pyridin-2-yl]methyl]piperazine-2,6-dione], for which the IC50 was less than 10 nM.

As to `CC1(CN2CC(=O)N(Cc3cc4nccc(-c5cc(Cl)cc6c5N(C5CNC5)CCC6)c4s3)C(=O)C2)CC1` [Example 29, 1-((7-(1-(azetidin-3-yl)-6-chloro-1,2,3,4-tetrahydroquinolin-8-yl)thieno[3,2-b]pyridin-2-yl)methyl)-4-((1-methylcyclopropyl)methyl)piperazine-2,6-dione], the IC50 was 10 to 100 nM.

Turning to `COCCn1ccc(=O)n(Cc2cc3nccc(-c4cc(Cl)cc5c4N(C4CNC4)CCC5)c3s2)c1=O` [Example 30, 3-[[7-[1-(azetidin-3-yl)-6-chloro-3,4-dihydro-2H-quinolin-8-yl]thieno[3,2-b]pyridin-2-yl]methyl]-1-(2-methoxyethyl)pyrimidine-2,4-dione], the IC50 was less than 10 nM.

For the compound `CN1C(=O)N(Cc2cc3nccc(-c4cc(Cl)cc5c4N(C4CNC4)CCC5)c3s2)C(=O)C12CCC2` [Example 31, 7-((7-(1-(azetidin-3-yl)-6-chloro-1,2,3,4-tetrahydroquinolin-8-yl)thieno[3,2-b]pyridin-2-yl)methyl)-5-methyl-5,7-diazaspiro[3.4]octane-6,8-dione], the IC50 fell in the range of 101 to 1000 nM.

With `N#Cc1cc2c(c(-c3ccnc4cc(CN5C(=O)CCC5=O)sc34)c1)N(C1CNC1)CCC2` [Example 32, 1-(azetidin-3-yl)-8-[2-[(2,5-dioxopyrrolidin-1-yl)methyl]thieno[3,2-b]pyridin-7-yl]-3,4-dihydro-2H-quinoline-6-carbonitrile], the IC50 fell in the range of 10 to 100 nM.

In the case of `Cc1cc2c(c(-c3ccnc4cc(CN5C(=O)CCC5=O)sc34)c1)N(C1CNC1)CCC2` [Example 33, 1-[[7-[1-(azetidin-3-yl)-6-methyl-3,4-dihydro-2H-quinolin-8-yl]thieno[3,2-b]pyridin-2-yl]methyl]pyrrolidine-2,5-dione], the IC50 was in the range of 10 to 100 nM.

`O=c1cc(N2CCOCC2)cnn1Cc1cc2nccc(-c3cc(Cl)cc4c3N(C3CNC3)CCC4)c2s1` [Example 34] came in with an IC50 of 10 to 100 nM.

With `O=c1cc(NC2CCC2)cnn1Cc1cc2nccc(-c3cc(Cl)cc4c3N(C3CNC3)CCC4)c2s1` [Example 35, 2-[[7-[1-(azetidin-3-yl)-6-chloro-3,4-dihydro-2H-quinolin-8-yl]thieno[3,2-b]pyridin-2-yl]methyl]-5-(cyclobutylamino)pyridazin-3-one], the IC50 was 10 to 100 nM.

Turning to `O=c1cc(Oc2ccc(F)cc2)cnn1Cc1cc2nccc(-c3cc(Cl)cc4c3N(C3CNC3)CCC4)c2s1` [Example 36, 2-((7-(1-(azetidin-3-yl)-6-chloro-1,2,3,4-tetrahydroquinolin-8-yl)thieno[3,2-b]pyridin-2-yl)methyl)-5-(4-fluorophenoxy)pyridazin-3(2H)-one], the IC50 is 10 to 100 nM.

With `Oc1ccnn1Cc1cc2nccc(-c3cc(Cl)cc4c3N(C3CNC3)CCC4)c2s1` [Example 37, 2-[[7-[1-(azetidin-3-yl)-6-chloro-3,4-dihydro-2H-quinolin-8-yl]thieno[3,2-b]pyridin-2-yl]methyl]pyrazol-3-ol], the IC50 is greater than 1000 nM.

Regarding `O=C(c1cc2nccc(-c3cc(Cl)cc4c3N(C3CNC3)CCC4)c2s1)N1CCC1` [Example 38, Azetidin-1-yl-[7-[1-(azetidin-3-yl)-6-chloro-3,4-dihydro-2H-quinolin-8-yl]thieno[3,2-b]pyridin-2-yl]methanone], the 50% inhibitory concentration (IC50) was greater than 1000 nM.

Consider `O=C1CCC(=O)N1Cc1cc2nccc(-c3cc(C(F)(F)F)cc4c3N(C3CNC3)CCC4)c2s1` [Example 39], for which the IC50 was 10 to 100 nM.

Compound `O=C1CCC(=O)N1Cc1cc2nccc(-c3cc(Cl)cc4c3N([C@H]3C[C@@H](O)C3)CCC4)c2s1` [Example 41, Cis-1-[[7-[6-chloro-1-(3-hydroxycyclobutyl)-3,4-dihydro-2H-quinolin-8-yl]thieno[3,2-b]pyridin-2-yl]methyl]pyrrolidine-2,5-dione] yielded an IC50 greater than 1000 nM.

As to `O=C1CCC(=O)N1Cc1cc2nccc(-c3cc(Cl)cc4c3N(C3CCNCC3)CCC4)c2s1` [Example 45, 1-((7-(6-chloro-1-(piperidin-4-yl)-1,2,3,4-tetrahydroquinolin-8-yl)thieno[3,2-b]pyridin-2-yl)methyl)pyrrolidine-2,5-dione], the half-maximal inhibitory concentration (IC50) is 10 to 100 nM.

Compound `CN1CCC(N2CCCc3cc(Cl)cc(-c4ccnc5cc(CN6C(=O)CCC6=O)sc45)c32)CC1` [Example 46, 1-[[7-[6-chloro-1-(1-methyl-4-piperidyl)-3,4-dihydro-2H-quinolin-8-yl]thieno[3,2-b]pyridin-2-yl]methyl]pyrrolidine-2,5-dione] showed an IC50 of 10 to 100 nM.

For `O=C1CCC(=O)N1Cc1cc2nccc(-c3cc(Cl)cc4c3N(C3CNC3)CCC43CC3)c2s1` [Example 48, 1-((7-(1′-(azetidin-3-yl)-6′-chloro-2′,3′-dihydro-1′H-spiro[cyclopropane-1,4′-quinolin]-8′-yl)thieno[3,2-b]pyridin-2-yl)methyl)pyrrolidine-2,5-dione], the IC50 fell in the range of 10 to 100 nM.

Take `O=C1CCC(=O)N1Cc1cc2nccc(-c3cc(Cl)cc4c3N(CC3CCNCC3)CCC4)c2s1` [Example 49, 1-[[7-[6-chloro-1-(4-piperidylmethyl)-3,4-dihydro-2H-quinolin-8-yl]thieno[3,2-b]pyridin-2-yl]methyl]pyrrolidine-2,5-dione]: the IC50 lay in the range of 101 to 1000 nM.

`CN1CCC(CN2CCCc3cc(Cl)cc(-c4ccnc5cc(CN6C(=O)CCC6=O)sc45)c32)CC1` [Example 50, 1-[[7-[6-chloro-1-[(1-methyl-4-piperidyl)methyl]-3,4-dihydro-2H-quinolin-8-yl]thieno[3,2-b]pyridin-2-yl]methyl]pyrrolidine-2,5-dione] came in with an IC50 of 10 to 100 nM.

Compound `O=C1CCC(=O)N1Cc1cc2nccc(-c3cc(Cl)cc4c3N(C3CNC3)C(=O)CO4)c2s1` [Example 53, 1-[[7-[4-(azetidin-3-yl)-7-chloro-3-oxo-1,4-benzoxazin-5-yl]thieno[3,2-b]pyridin-2-yl]methyl]pyrrolidine-2,5-dione] showed an IC50 of 10 to 100 nM.

`O=C1CCC(=O)N1Cc1cc2nccc(-c3cc(Cl)cc4c3N(C3CNC3)CCO4)c2s1` [Example 54, 1-[[7-[4-(azetidin-3-yl)-7-chloro-2,3-dihydro-1,4-benzoxazin-5-yl]thieno[3,2-b]pyridin-2-yl]methyl]pyrrolidine-2,5-dione] returned an IC50 of 10 to 100 nM.

Take `O=c1ccn(CC(F)(F)F)c(=O)n1Cc1cc2nccc(-c3cc(Cl)cc4c3N([C@H]3CCNC3)CCC4)c2s1` [Example 55, (S)-3-((7-(6-chloro-1-(pyrrolidin-3-yl)-1,2,3,4-tetrahydroquinolin-8-yl)thieno[3,2-b]pyridin-2-yl)methyl)-1-(2,2,2-trifluoroethyl)pyrimidine-2,4(1H,3H)-dione]: the IC50 is less than 10 nM.

For `O=c1ccn(CC(F)(F)F)c(=O)n1Cc1cc2nccc(-c3cc(Cl)cc4c3N([C@@H]3CCNC3)CCC4)c2s1` [Example 56, (R)-3-((7-(6-chloro-1-(pyrrolidin-3-yl)-1,2,3,4-tetrahydroquinolin-8-yl)thieno[3,2-b]pyridin-2-yl)methyl)-1-(2,2,2-trifluoroethyl)pyrimidine-2,4(1H,3H)-dione], the IC50 was less than 10 nM.

`O=C1CCC(=O)N1Cc1cc2nccc(-c3cc(Cl)cc4c3N([C@H]3CCNC3)CCC4)c2s1` [Example 57, (S)-1-((7-(6-chloro-1-(pyrrolidin-3-yl)-1,2,3,4-tetrahydroquinolin-8-yl)thieno[3,2-b]pyridin-2-yl)methyl)pyrrolidine-2,5-dione] returned an IC50 of less than 10 nM.

On to `O=C1CCC(=O)N1Cc1cc2nccc(-c3cc(Cl)cc4c3N([C@@H]3CCNC3)CCC4)c2s1` [Example 58, (R)-1-((7-(6-chloro-1-(pyrrolidin-3-yl)-1,2,3,4-tetrahydroquinolin-8-yl)thieno[3,2-b]pyridin-2-yl)methyl)pyrrolidine-2,5-dione], for which the IC50 is 10 to 100 nM.
